Laboratory results as given in patent US7576128B2 (priority 2004, dated 2009).
Where a chain is given by its changes, count along the chain named.

What was measured:
[1] = after 7 years of treatment; cited from earlier work
[2] = target: T1, hAR (human androgen receptor) (Homo sapiens, UniProt P10275); assay: Competitive binding analysis on baculovirus/Sf9 generated hAR extracts with 3H-DHT tracer
T1 construct: made in house; host or cells: baculovirus/Sf9 insect cells
T1 sequence (P10275 1-920): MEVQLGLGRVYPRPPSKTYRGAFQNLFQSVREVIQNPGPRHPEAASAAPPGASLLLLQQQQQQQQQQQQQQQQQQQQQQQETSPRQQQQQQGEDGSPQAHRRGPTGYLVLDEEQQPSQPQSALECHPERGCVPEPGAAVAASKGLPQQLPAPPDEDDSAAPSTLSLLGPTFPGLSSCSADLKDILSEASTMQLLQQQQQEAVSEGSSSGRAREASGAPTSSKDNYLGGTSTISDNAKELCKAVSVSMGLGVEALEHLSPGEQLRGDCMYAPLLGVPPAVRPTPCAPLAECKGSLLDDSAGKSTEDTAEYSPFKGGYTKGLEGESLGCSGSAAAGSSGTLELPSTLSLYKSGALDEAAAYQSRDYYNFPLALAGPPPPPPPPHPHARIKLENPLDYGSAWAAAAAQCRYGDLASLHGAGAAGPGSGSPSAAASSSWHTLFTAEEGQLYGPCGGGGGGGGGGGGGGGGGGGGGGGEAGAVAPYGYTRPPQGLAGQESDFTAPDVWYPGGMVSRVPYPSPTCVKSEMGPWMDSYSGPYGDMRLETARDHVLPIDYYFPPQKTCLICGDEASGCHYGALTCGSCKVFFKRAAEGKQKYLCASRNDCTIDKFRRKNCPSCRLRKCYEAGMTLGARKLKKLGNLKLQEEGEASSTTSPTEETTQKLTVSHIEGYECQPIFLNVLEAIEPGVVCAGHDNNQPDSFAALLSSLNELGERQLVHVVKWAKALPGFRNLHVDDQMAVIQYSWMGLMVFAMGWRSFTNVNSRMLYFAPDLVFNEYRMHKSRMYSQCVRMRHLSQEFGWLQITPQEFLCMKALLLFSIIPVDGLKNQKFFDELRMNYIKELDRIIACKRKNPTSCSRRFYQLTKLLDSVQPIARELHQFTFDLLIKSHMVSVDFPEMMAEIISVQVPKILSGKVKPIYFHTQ
Protocol: The description below describes how the assay was carried out.
Competitive binding analysis was performed on baculovirus/Sf9 generated hAR extracts in the presence or absence of different concentrations of test agent and a fixed concentration of ^3H-dihydrotestosterone (^3H-DHT) as tracer. This binding assay method is a modification of a protocol previously described (Liao S., et. al. J. Steroid Biochem. 20:11-17 1984). Briefly, progressively decreasing concentrations of compounds are incubated in the presence of hAR extract (Chang et al. P.N.A.S. Vol. 89, pp. 5546-5950,1992), hydroxylapatite, and 1 nM ^3 H-DHT for one hour at 4° C. Subsequently, the binding reactions are washed three times to completely remove excess unbound ^3 H-DHT. hAR bound ^3H-DHT levels are determined in the presence of compounds (=i.e competitive binding) and compared to levels bound when no competitor is present (=i.e. maximum binding). Compound binding affinity to the hAR is expressed as the concentration of compound at which one half of the maximum binding is inhibited.

androgen receptor = target: T2, androgen receptor (Homo sapiens, UniProt P10275); assay: AR antagonist cell assay, MDA-MB453-MMTV clone 54-19 luciferase reporter; type: cell-based; conditions: read-out: AR Cell IC50; MDA-MB453-MMTV clone 54-19, 100 pM DHT, 17 hr; mean of multiple tests
T2 sequence (P10275 1-920 Q868H): T1 sequence (P10275 1-920) with Q868H
Protocol: The compounds ability to antagonize the effects of androgen on the androgen receptor were determined in a whole cell assay as described immediately below.
This cell line is a stable transfected cell line with MDA-MB453 cell background (a human breast tumor cell line expressing androgen receptor). A MMTV minimal promoter containing ARE was first cloned in front of a firefly luciferase reporter gene. Then the cascade was cloned into transfection vector pUV120puro. Electroporation method was used for transfecting MDA-MB-453 cell. Puromycin resistant stable cell line was selected.
• 1. Cells are maintained in culture medium, splitting cells when they reach 80-90% confluence • 2. To test compounds, 10,000 cells/well are plated to opaque 96 cell culture plate in 100 ul/well plating medium, culture for overnight at 37° C. in cell culture incubator • 3. Carefully remove plating medium, then add 80 ul/well of pre-warmed assay medium, add 10 ul/well testing compound (final concentration at) 1000 nM, 200 nM, 40 nM, 8 nM, 1.6 nM, and 0.32 nM), incubate at 37° C. for 30 minutes • 4. Add 10 ul/well freshly prepared DHT (final concentration at 100 pM) to each well, incubate at 37° C. for 17 hr (overnight) • 5.
The results are reported as the mean of multiple tests as described below (the numbers of tests are indicated in the footnote). N.D. denotes that the compound was not tested.

Male C3H/HeN mice = assay: Modified telogen conversion assay (hair growth, induction of anagen); type: in vivo; conditions: test concentration of 3% w/v, topical
Text: It has been discovered that male C3H/HeN mice may be used in the telogen conversion assay, when evaluating anti-androgen test compounds. Thus, the model relates to a modification of the existing telogen conversion assay. Male C3H/HeN mice approximately 7 weeks old are utilized. These animals are also uniformly in telogen, like their female counterparts. However, once shaven, the androgens inherently present in these male mice inhibit the conversion of the hair follicles to the anagen phase. An anti-androgen will block this androgenic effect and the follicles will convert to anagen, like their female counterparts.
Male C3H/HeN mice, 6 to 7 weeks old (Charles River Laboratories, Raleigh, N.C.) were used for the study. Fur was clipped from the dorsal region of the mice prior to initiation of the study. Only mice with pink skin, a visual indication of the telogen phase, were selected for inclusion in the study.
The test compound was dissolved in a vehicle consisting of propylene glycol (30%) and ethanol (70%) to achieve a concentration of either 0.2% w/v, 0.5% w/v, 1% w/v or 3% w/v. The relevant dose was applied topically to the clipped dorsal region of the mice in one test group (7-10 mice) in a volume of 20 μl/cm^2. A third group of animals received only the vehicle to serve as a control. Treatments were applied twice daily for 4 weeks.
The treatment area was observed and graded every other day for signs of hair growth. The hair growth response was quantified by recording, for each animal, the day on which signs of hair growth first appeared over the treated area. The first sign of anagen was the darkening of skin color as melanocytes in the follicles started to synthesize melanin in preparation for the production of pigmented hairs. […] The percentage of mice showing signs of hair growth in both the treatment group and the control group is graphically depicted in FIG. 1.

Compound | increase in spinal BMD [1] | IC50 [2] | IC50 (androgen receptor) | rate of hair growth versus vehicle control (Male C3H/HeN mice)
NCCCC(O)(P(=O)(O)O)P(=O)(O)O [alendronate] | ≤ 11% |  |  | 
CC(C)C(O)C(C)(C)COc1ccc(C#N)c(Cl)c1 (stereo not shown) [Example 27, 2-Chloro-4-(3-Hy-droxy-2,2,4-trimethyl-pentyloxy)-benzonitrile] |  | 63 nM | 0.04 nM | did not exceed that of the vehicle control
